Earlier results in patent US20190134140A1, “ORALLY ADMINISTERED COMPOSITION FOR TREATING CYSTIC FIBROSIS, COPD, ASTHMA AND OTHER INFLAMMATORY CONDITIONS” (priority 2017, published 2019).
Where two headings read alike, the source gives them in different places.

How the values were obtained:
dF508 = dF508 (Homo sapiens, UniProt P13569, DEL508-508)
Sequence of dF508 (P13569 with tags, fused parts or gaps DEL508-508): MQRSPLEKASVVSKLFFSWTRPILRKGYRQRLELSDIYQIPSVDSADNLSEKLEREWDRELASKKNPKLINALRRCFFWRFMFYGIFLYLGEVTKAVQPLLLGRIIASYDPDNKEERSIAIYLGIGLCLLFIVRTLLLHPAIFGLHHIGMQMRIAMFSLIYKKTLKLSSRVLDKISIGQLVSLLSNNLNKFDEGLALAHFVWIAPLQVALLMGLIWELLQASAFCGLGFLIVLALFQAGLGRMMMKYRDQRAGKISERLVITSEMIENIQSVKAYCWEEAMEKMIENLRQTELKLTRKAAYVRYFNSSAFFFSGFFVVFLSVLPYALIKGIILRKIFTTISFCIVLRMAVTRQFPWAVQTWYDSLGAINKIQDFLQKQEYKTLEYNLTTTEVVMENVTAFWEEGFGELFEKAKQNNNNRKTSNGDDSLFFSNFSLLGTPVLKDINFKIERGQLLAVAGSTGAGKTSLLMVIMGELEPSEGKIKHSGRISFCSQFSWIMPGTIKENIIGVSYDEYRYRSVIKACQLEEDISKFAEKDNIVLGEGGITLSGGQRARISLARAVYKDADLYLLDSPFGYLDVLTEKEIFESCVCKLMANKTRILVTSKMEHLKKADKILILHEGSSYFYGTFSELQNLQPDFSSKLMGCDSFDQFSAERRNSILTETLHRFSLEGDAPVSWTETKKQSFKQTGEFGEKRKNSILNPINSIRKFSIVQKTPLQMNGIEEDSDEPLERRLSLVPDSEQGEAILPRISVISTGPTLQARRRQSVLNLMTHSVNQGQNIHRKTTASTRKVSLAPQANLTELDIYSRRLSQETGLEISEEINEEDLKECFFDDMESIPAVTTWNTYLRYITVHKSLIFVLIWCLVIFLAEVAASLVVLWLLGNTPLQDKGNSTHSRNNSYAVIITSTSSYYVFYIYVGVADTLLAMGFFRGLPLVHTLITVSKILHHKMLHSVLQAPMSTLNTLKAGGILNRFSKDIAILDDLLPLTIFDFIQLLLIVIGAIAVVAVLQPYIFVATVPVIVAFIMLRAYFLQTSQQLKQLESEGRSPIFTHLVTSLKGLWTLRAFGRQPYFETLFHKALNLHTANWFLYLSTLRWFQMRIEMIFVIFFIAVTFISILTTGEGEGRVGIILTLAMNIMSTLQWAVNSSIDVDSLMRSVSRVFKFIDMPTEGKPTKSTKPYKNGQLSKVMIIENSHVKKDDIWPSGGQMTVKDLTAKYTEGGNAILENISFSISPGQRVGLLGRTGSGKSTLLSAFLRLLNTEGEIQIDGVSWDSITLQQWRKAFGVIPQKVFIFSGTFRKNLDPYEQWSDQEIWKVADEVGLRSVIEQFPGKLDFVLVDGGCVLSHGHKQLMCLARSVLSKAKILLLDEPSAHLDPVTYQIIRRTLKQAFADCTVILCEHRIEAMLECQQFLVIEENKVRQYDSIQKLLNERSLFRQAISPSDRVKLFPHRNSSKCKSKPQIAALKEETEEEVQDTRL

| Structure (SMILES) | activation of dF508 (dF508) | ciliary beat frequency (ciliary beat frequency) | enhancement in permeability (combined with curcumin) [%] | enhancement in permeability (combined with piperine) [%] | enhancement in permeability (combined with quercetin) [%] |
| --- | --- | --- | --- | --- | --- |
| O=c1c(O)c(-c2ccc(O)c(O)c2)oc2cc(O)cc(O)c12 [Quercetin] | activate dF508 | increase ciliary beat frequency | – | – | – |
| Oc1ccc(C=Cc2cc(O)cc(O)c2)cc1 [Resveratrol] | – | – | 300 | 350 | 310 |
